Reference: ChEMBL document CHEMBL1144685, “Naphthamides as novel and potent vascular endothelial growth factor receptor tyrosine kinase inhibitors: design, synthesis, and evaluation” (J Med Chem, 2008)
Calls of active or inactive are those of the source. The calls are words filed in the database; no cut-off is given here.

Experiments:
[1] = biological target: Vascular endothelial growth factor receptor 2 (Homo sapiens, UniProt P35968)
Description: Inhibition of KDR by HTRF assay

HUVEC [2] = experiment: cells; conditions: Homo sapiens
Description: Inhibition of VEGF-induced proliferation of HUVEC cells

HUVEC [3] = experiment: cells; conditions: Homo sapiens; remark: listed apart in the source
Description: Inhibition of bFGF-induced proliferation of HUVEC cells

[4] = Intrinsic clearance in human liver microsomes; type: ADME, Microsome
[5] = AUC (0 to 24 hrs) in Sprague-Dawley rat at 10 mg/kg, po; type: ADME, organism-based; parameters: time < 24 hr, dose 10 mg/kg, route oral; conditions: plasma
[6] = Intrinsic clearance in rat liver microsomes; type: ADME, Microsome
Cytochrome P450 3A4 = Cytochrome P450 3A4 (Homo sapiens, UniProt P08684)
Chain of Cytochrome P450 3A4 (P08684 whole entry): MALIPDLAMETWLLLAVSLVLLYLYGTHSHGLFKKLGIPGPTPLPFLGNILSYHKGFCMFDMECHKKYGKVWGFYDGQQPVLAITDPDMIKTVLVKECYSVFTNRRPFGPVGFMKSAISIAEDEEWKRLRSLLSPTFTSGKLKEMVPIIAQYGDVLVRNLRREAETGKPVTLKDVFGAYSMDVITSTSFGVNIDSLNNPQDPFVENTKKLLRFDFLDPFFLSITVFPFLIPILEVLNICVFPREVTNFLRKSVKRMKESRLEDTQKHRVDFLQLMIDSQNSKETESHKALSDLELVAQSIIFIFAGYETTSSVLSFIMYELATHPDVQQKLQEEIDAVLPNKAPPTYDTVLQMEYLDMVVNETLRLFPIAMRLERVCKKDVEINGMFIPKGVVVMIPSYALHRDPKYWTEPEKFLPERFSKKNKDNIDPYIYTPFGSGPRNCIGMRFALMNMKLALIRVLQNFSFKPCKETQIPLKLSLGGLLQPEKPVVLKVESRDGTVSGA

[7] = Half life in Sprague-Dawley rat at 1 mg/kg, iv; type: ADME, organism-based; parameters: dose 1 mg/kg, route intravenous; conditions: in vivo
[8] = Oral bioavailability in Sprague-Dawley rat at 10 mg/kg; type: ADME, organism-based; conditions: in vivo
[9] = Cmax in Sprague-Dawley rat at 10 mg/kg, po; type: ADME, organism-based; parameters: dose 10 mg/kg, route oral; conditions: in vivo
Cytochrome P450 2D6 = Cytochrome P450 2D6 (Homo sapiens, UniProt P10635)
Chain of Cytochrome P450 2D6 (P10635 whole entry): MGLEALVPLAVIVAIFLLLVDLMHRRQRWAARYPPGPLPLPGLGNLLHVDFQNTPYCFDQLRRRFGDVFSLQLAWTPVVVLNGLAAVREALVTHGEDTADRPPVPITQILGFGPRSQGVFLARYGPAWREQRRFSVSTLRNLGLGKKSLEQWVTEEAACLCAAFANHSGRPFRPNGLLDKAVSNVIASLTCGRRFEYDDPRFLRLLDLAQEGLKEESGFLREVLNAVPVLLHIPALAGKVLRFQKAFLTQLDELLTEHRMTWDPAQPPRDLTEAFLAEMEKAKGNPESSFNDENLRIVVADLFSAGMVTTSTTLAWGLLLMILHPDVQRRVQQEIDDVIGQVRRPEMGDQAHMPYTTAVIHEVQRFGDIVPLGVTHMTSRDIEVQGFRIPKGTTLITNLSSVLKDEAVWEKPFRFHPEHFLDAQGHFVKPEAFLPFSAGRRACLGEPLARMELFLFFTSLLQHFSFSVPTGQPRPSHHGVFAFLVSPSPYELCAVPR

[10] = Clearance in Sprague-Dawley rat at 1 mg/kg, iv; type: ADME, organism-based; parameters: dose 1 mg/kg, route intravenous; conditions: in vivo
[11] = Mean retention time in Sprague-Dawley rat at 1 mg/kg, iv; type: ADME, organism-based; parameters: dose 1 mg/kg, route intravenous; conditions: in vivo
[12] = Volume of distribution at steady state in Sprague-Dawley rat at 1 mg/kg, iv; type: ADME, organism-based; parameters: dose 1 mg/kg, route intravenous; conditions: in vivo, read-out: Vdss
[13] = Volume of distribution at steady state in Sprague-Dawley rat at 0.5 mg/kg, iv; type: ADME, organism-based; parameters: dose 0.5 mg/kg, route intravenous; conditions: in vivo, read-out: Vdss
[14] = Mean retention time in Sprague-Dawley rat at 0.5 mg/kg, iv; type: ADME, organism-based; parameters: dose 0.5 mg/kg, route intravenous; conditions: in vivo
[15] = Half life in Sprague-Dawley rat at 0.5 mg/kg, iv; type: ADME, organism-based; parameters: dose 0.5 mg/kg, route intravenous; conditions: in vivo
[16] = Clearance in Sprague-Dawley rat at 0.5 mg/kg, iv; type: ADME, organism-based; parameters: dose 0.5 mg/kg, route intravenous; conditions: in vivo
HT-29 [17] = experiment: Antitumor activity against human HT29 cell xenografted CD1 nu/nu mouse assessed as inhibition of tumor growth at 10 mg/kg, po after 7 days; type: functional, organism-based; parameters: dose 10 mg/kg
Mus musculus [18] = species: Mus musculus; experiment: Inhibition of mouse KDR phosphorylation in BALB/c mouse lung assessed as phosphorylated Flk1 level by Delphia assay; type: functional, organism-based
Mus musculus [19] = experiment: Inhibition of vascular permeability in HEK293 cells over expressing recombinant mouse VEGF implanted CD1 nu/nu mouse at 30 mg/kg, po by Matrigel plug assay; type: functional, organism-based; parameters: dose 30 mg/kg
Mus musculus [20] = experiment: Inhibition of vascular permeability in HEK293 cells over expressing recombinant mouse VEGF implanted CD1 nu/nu mouse at 100 mg/kg, po by Matrigel plug assay; type: functional, organism-based; parameters: dose 100 mg/kg
HT-29 [21] = experiment: Antitumor activity against human HT29 cell xenografted CD1 nu/nu mouse assessed as inhibition of tumor growth at 30 mg/kg, po after 10 days; type: functional, organism-based; parameters: dose 30 mg/kg

Chain of Vascular endothelial growth factor receptor 2 (P35968 whole entry): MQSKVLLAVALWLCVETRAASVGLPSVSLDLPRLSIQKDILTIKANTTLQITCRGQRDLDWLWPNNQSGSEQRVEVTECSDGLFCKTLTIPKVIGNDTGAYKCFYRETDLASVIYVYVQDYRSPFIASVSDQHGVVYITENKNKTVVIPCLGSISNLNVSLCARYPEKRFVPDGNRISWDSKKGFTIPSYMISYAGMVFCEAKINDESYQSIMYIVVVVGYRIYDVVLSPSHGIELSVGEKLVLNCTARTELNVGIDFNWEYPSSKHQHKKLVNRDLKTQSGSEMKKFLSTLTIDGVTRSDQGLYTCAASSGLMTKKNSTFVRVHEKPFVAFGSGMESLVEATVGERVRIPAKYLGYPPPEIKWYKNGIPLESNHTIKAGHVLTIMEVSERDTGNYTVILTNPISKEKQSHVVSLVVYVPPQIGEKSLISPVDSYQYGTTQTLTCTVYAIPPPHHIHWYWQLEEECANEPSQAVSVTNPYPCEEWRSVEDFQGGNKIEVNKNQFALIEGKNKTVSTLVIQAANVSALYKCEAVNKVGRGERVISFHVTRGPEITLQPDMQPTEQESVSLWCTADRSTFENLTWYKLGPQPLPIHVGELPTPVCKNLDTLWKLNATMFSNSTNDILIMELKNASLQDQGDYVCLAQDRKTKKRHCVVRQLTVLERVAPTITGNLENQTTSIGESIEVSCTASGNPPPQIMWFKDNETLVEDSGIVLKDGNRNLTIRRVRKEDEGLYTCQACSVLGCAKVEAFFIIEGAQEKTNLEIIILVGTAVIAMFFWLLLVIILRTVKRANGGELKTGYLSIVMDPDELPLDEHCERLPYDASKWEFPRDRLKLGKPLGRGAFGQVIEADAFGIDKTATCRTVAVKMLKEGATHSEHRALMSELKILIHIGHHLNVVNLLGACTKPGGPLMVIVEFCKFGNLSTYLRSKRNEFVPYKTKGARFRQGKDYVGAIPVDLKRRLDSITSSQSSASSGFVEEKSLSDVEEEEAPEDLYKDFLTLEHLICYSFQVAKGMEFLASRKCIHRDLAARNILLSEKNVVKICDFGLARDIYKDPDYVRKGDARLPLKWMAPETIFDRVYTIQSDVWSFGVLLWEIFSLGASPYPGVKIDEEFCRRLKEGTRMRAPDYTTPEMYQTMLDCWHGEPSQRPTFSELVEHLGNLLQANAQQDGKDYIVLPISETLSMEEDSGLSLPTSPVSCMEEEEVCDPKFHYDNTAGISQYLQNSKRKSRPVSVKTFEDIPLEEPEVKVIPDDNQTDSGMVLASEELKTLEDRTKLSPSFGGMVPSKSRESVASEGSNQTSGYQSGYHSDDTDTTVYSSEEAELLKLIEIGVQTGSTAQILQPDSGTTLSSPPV

Row | Compound | IC50 [1] [nM] | IC50 (HUVEC [2]) [nM] | IC50 (HUVEC [3]) [nM] | further results
1 | COc1cc2nccc(Oc3ccc4c(C(=O)NC5CCCC5)cccc4c3)c2cc1OC | 9 | 7 | > 1140 | 
2 | CNc1cc(Oc2ccc3c(C(=O)Nc4ccc(Cl)cc4)cccc3c2)ncn1 | 20 | 106 | > 1100 | 
3 | O=C(Nc1ccc(Cl)cc1)c1cccc2cc(Oc3ccncc3)ccc12 | 18 | 220 | > 1100 | 
4 | COc1cc2nccc(Oc3ccc4c(C(=O)Nc5ccccc5)cccc4c3)c2cc1OC | 0.2 | 0.8 | 577 | 
5 | COc1cc2nccc(Oc3ccc4c(C(=O)Nc5ccon5)cccc4c3)c2cc1OC | 0.2 |  |  | 
6 | COc1cc2nccc(Nc3ccc4c(C(=O)Nc5ccc(Cl)cc5)cccc4c3)c2cc1OC | 8 | 14 | 115 | 
7 | COc1cc2nccc(Oc3ccc4c(C(=O)Nc5ccc(Cl)cc5)ccnc4c3)c2cc1OC | 22 | 10 | 88 | 
8 | COc1cc2nccc(Oc3ccc4c(C(=O)NC5CCC5)cccc4c3)c2cc1OC | 3 | 7 | > 1140 | 
9 | CCCNC(=O)c1cccc2cc(Oc3ccnc4cc(OC)c(OC)cc34)ccc12 | 1.3 | 7 | > 1140 | 
10 | COc1cc2nccc(Oc3ccc4c(C(=O)Nc5cccc(F)c5)cccc4c3)c2cc1OC | 0.6 | 3 |  | 
11 | COc1cc2nccc(Oc3ccc4c(C(=O)Nc5ccncc5)cccc4c3)c2cc1OC | 2 | 2 | > 1140 | microsomal CLint [4]: 30 µL/min/mg; AUC(0-t) at 24 h [5]: 11000 ng·h/mL; microsomal CLint [6]: 80 µL/min/mg; IC50 (Cytochrome P450 3A4): 100 nM; half-life [7]: 1.8 h; bioavailability [8]: 62%; Cmax [9]: 1690 ng/mL; IC50 (Cytochrome P450 2D6): 700 nM; clearance [10]: 10 mL/min/kg; MRT [11]: 2.5 h; Vd [12]: 1.4 L/kg
12 | O=C(Nc1ccc(Cl)cc1)c1cccc2cc(Oc3ccnc4ccccc34)ccc12 | 4 | 34 | > 1100 | 
13 | O=C(Nc1ccc(Cl)cc1)c1cccc2cc(Oc3ncnc4[nH]ccc34)ccc12 | 28 | 37 | > 1140 | 
14 | COc1cc2nccc(Oc3ccc4c(C(=O)Nc5nccs5)cccc4c3)c2cc1OC |  | 2 | 605 | 
15 | COc1cc2nccc(Oc3ccc4c(C(=O)NC5(C)CC5)cccc4c3)c2cc1OC | 15 |  |  | 
16 | COc1cc2ncc(F)c(Oc3ccc4c(C(=O)Nc5ccc(Cl)cc5)cccc4c3)c2cc1OC | 20 | 69 | > 1100 | 
17 | CNC(=O)c1cc(Oc2ccc3c(C(=O)Nc4ccc(Cl)cc4)cccc3c2)ccn1 | 3 | 210 | > 1100 | 
18 | COc1ccc2c(Oc3ccc4c(C(=O)Nc5ccc(Cl)cc5)cccc4c3)ccnc2c1 | 1 | 8 | > 1100 | 
19 | COc1cc2nccc(Oc3ccc4c(C(=O)Nc5ccc(F)cc5)cccc4c3)c2cc1OC | 1 | 2 | 305 | 
20 | COc1cc2nccc(Oc3ccc4c(C(=O)Nc5cccc(C(F)(F)F)c5)cccc4c3)c2cc1OC | 0.5 | 34 | 205 | 
21 | O=C(Nc1ccc(Cl)cc1)c1cccc2cc(Oc3ccncn3)ccc12 | 310 |  |  | 

Row | Compound | IC50 [1] [nM] | IC50 (HUVEC [2]) [nM] | IC50 (HUVEC [3]) [nM] | further results
22 | COc1cc2nccc(Oc3ccc4c(C(=O)Nc5ccccc5F)cccc4c3)c2cc1OC | 2 | 7 | > 1140 | 
23 | COc1cc2nccc(Oc3ccc4c(C(=O)Nc5ccc(Cl)c(C(F)(F)F)c5)cccc4c3)c2cc1OC | 1 | 247 | 228 | 
24 | COc1cc2nccc(Oc3ccc4c(C(=O)Nc5cc(C)on5)cccc4c3)c2cc1OC | 0.6 | 6 | 250 | 
25 | COc1cc2nccc(Oc3ccc4c(C(=O)Nc5ccc(Cl)cc5Cl)cccc4c3)c2cc1OC | 2 | 14 | > 1140 | 
26 | COc1cc2nccc(Oc3ccc4c(C(=O)Nc5ccc(Cl)cc5)cccc4c3)c2cc1C(N)=O | 0.2 | 3 | 380 | 
27 | COc1cc2nccc(Oc3ccc4c(C(=O)Nc5cccc(Cl)c5)cccc4c3)c2cc1OC | 0.3 | 5.1 |  | 
28 | CNc1nccc(Oc2ccc3c(C(=O)Nc4ccc(Cl)cc4)cccc3c2)n1 | 46 | 296 | > 1100 | 
29 | COc1cc2nccc(Oc3ccc4c(C(=O)Nc5cc(C)no5)cccc4c3)c2cc1OC | 1 | 7 | > 1140 | microsomal CLint [4]: 40 µL/min/mg; Vd [13]: 2.7 L/kg; MRT [14]: 2.1 h; microsomal CLint [6]: 40 µL/min/mg; IC50 (Cytochrome P450 3A4): 40000 nM; half-life [15]: 2.4 h; IC50 (Cytochrome P450 2D6): > 50000 nM; clearance [16]: 21.7 mL/min/kg
30 | COc1cc2nccc(Oc3ccc4c(C(=O)Nc5cccnc5)cccc4c3)c2cc1OC | 0.8 | 2 | 1100 | microsomal CLint [4]: 90 µL/min/mg; AUC(0-t) at 24 h [5]: 27100 ng·h/mL; microsomal CLint [6]: 90 µL/min/mg; IC50 (Cytochrome P450 3A4): 2000 nM; half-life [7]: 1.1 h; bioavailability [8]: 100%; Cmax [9]: 5710 ng/mL; IC50 (Cytochrome P450 2D6): 17000 nM; clearance [10]: 15 mL/min/kg; MRT [11]: 1.4 h; Vd [12]: 1.3 L/kg
31 | COc1cc2nccc(Oc3ccc4c(C(=O)Nc5ccc(C(C)(C)C)cc5)cccc4c3)c2cc1OC | 0.7 | 63 | 944 | 
32 | CNc1cc(Oc2ccc3c(C(=O)Nc4ccc(Cl)cc4)cccc3c2)ccn1 | 7 | 140 | > 1100 | 
33 | COc1cc2nccc(Oc3ccc4c(C(=O)NC5CC5)cccc4c3)c2cc1OC |  | 1 |  | 
34 | COc1cc2nccc(Oc3ccc4c(C(=O)Nc5ccc(C(F)(F)F)cc5)cccc4c3)c2cc1OC | 0.5 | 16 | 228 | 
35 | COc1cc2nccc(Oc3ccc4c(C(=O)Nc5ccc(C)cc5)cccc4c3)c2cc1OC | 0.5 | 2 | 548 | 
36 | COc1cc2nccc(Oc3ccc4c(C(=O)Nc5ccc(Cl)cc5)cccc4c3)c2cc1OC |  |  |  | Activity (HT-29 [17]): Active; Activity (Mus musculus [18]): Active; Activity (Mus musculus [19]): Dose-dependent effect; Activity (Mus musculus [20]): Dose-dependent effect; Activity (HT-29 [21]): Active
37 | COc1cc2nccc(Oc3ccc4c(C(=O)NC(C)C)cccc4c3)c2cc1OC | 5 | 4 | > 1140 | 
38 | COc1cc2nccc(Oc3cc4cccc(C(=O)Nc5ccc(Cl)cc5)c4cn3)c2cc1OC | 23 | 175 | > 1140 | 
39 | COc1cc2nccc(Oc3ccc4c(C(=O)Nc5cc(Cl)cc(Cl)c5)cccc4c3)c2cc1OC | 0.3 | 28 | 742 | 
40 | COc1cc2nccc(Oc3ccc4c(C(=O)Nc5cc(C(C)(C)C)on5)cccc4c3)c2cc1OC | 0.8 | 68 | 190 | 
41 | COc1cc2nccc(N(C)c3ccc4c(C(=O)Nc5ccc(Cl)cc5)cccc4c3)c2cc1OC | > 1400 |  |  | 
